biological target: T1, human CB2 receptor (Homo sapiens, UniProt P34972); assay: Human CB2 receptor binding inhibition test ([3H]CP-55,940, CHO membrane fractions); conditions: [3H]CP-55,940, membrane fractions of CHO cells stably expressing human CB2 receptor, 25° C., 2 hours; read-out: CB2 IC50 (Inhibition of binding to human CB2 receptor)
T1 construct: expressed in transfected cells
Procedure, shortened: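 Membranes from CHO-DHFR(−) cells stably expressing human CB2 used for [3H]CP-55,940 binding; filter-bound radioactivity counted by scintillation after washes with 0.1% BSA buffer. Nonspecific binding defined with 2.0 μM CP-55,940; IC50 for inhibition of specific binding.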

T1 sequence (P34972 whole entry): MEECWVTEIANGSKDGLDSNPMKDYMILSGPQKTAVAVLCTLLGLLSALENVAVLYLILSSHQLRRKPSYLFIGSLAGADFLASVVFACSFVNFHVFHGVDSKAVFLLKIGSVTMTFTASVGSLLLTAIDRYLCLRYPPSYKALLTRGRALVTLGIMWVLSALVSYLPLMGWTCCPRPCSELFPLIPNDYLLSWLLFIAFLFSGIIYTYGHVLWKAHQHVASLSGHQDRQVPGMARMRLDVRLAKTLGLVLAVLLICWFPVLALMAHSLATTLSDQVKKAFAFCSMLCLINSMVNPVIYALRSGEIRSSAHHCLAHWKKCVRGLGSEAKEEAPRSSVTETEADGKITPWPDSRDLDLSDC

Point of comparison: Cc1c(C(C)(C)C)s/c(=N\C(=O)c2cc(C(F)(F)F)ccc2N(C)C)n1CC1CC1 [compound 277], IC50 9 nM. Against it:
- Cc1cc(Cl)ccc1C(=O)/N=c1\sc(C(C)(C)C)c(C)n1CC1CC1 [compound 242] — 2.2-fold lower, 4 nM
- Cc1cccc(Cl)c1C(=O)/N=c1\sc(C(C)(C)C)c(C)n1CC1CC1 [compound 244] — 2.8-fold lower, 3.2 nM
- Cc1cccc(Br)c1C(=O)/N=c1\oc(C(C)(C)C)c(C)n1CC1CC1 [compound 248] — 1.6-fold lower, 5.6 nM
- Cc1c(C(C)(C)C)s/c(=N\C(=O)c2cc(C(F)(F)F)ccc2F)n1CC1CC1 [compound 251] — 2.6-fold lower, 3.4 nM
- Cc1c(C(C)(C)C)s/c(=N\C(=O)c2cc(F)ccc2C(F)(F)F)n1CC1CC1 [compound 254] — 6.4-fold lower, 1.4 nM
- Cc1c(C(C)(C)C)s/c(=N\C(=O)c2cc(C(F)(F)F)ccc2Cl)n1CC1CC1 [compound 257] — 6.9-fold lower, 1.3 nM
- Cc1c(C(C)(C)C)s/c(=N\C(=O)c2cc(Br)ccc2OC(F)F)n1CC1CC1 [compound 266] — 11-fold lower, 0.8 nM
- CCOc1ccc(C(F)(F)F)cc1C(=O)/N=c1\sc(C(C)(C)C)c(C)n1CC1CC1 [compound 268] — 8.2-fold lower, 1.1 nM
- Cc1c(C(C)(C)C)s/c(=N\C(=O)c2cc(C(F)(F)F)ccc2OC(C)C)n1CC1CC1 [compound 269] — 2.5-fold lower, 3.6 nM
- COCCOc1ccc(C(F)(F)F)cc1C(=O)/N=c1\sc(C(C)(C)C)c(C)n1CC1CC1 [compound 270] — 13-fold lower, 0.7 nM
- Cc1c(C(C)(C)C)s/c(=N\C(=O)C2=C(NCCO)C=CC(C(F)(F)F)C2)n1CC1CC1 (centres unmarked) [compound 272] — 1.8-fold lower, 5 nM
- CCN(C)c1ccc(C(F)(F)F)cc1C(=O)/N=c1\sc(C(C)(C)C)c(C)n1CC1CC1 [compound 274] — within 1.5-fold, 13.2 nM
- Cc1c(C(C)(C)C)s/c(=N\C(=O)c2ccc(F)c(F)c2F)n1CC1CC1 [compound 282] — 1.6-fold higher, 14.5 nM
- Cc1c(C(C)(C)C)s/c(=N\C(=O)c2cc(F)c(F)cc2F)n1CC1CC1 [compound 283] — 1.5-fold lower, 5.9 nM
- Cc1c(C(C)(C)C)s/c(=N\C(=O)c2cc(F)c(F)cc2Cl)n1CC1CC1 [compound 284] — 7.5-fold lower, 1.2 nM
- Cc1c(C(C)(C)C)s/c(=N\C(=O)c2ccc(F)c(Cl)c2F)n1CC1CC1 [compound 285] — 1.6-fold higher, 14.2 nM
- Cc1ccc(C(=O)/N=c2\sc(C(C)(C)C)c(C)n2CC2CC2)c(F)c1F [compound 287] — 1.5-fold higher, 13.5 nM
- Cc1cccnc1C(=O)/N=c1\sc(C(C)(C)C)c(C)n1CC1CC1 [compound 293] — within 1.5-fold, 7 nM
- Cc1c(C(C)(C)C)s/c(=N/C(=O)c2cnccc2C(F)(F)F)n1CC1CC1 [compound 298] — 6-fold lower, 1.5 nM
- Cc1c(C(C)(C)C)s/c(=N/C(=O)c2cccnc2F)n1CC1CC1 [compound 300] — 1.7-fold higher, 15 nM
- Cc1c(C(C)(C)C)s/c(=N\C(=O)c2nccnc2Cl)n1CC1CC1 [compound 305] — 2.4-fold lower, 3.7 nM
- Cc1c(C(C)(C)C)s/c(=N\C(=O)c2cc(Cl)ncc2Cl)n1CC1CC1 [compound 307] — 9-fold lower, 1 nM
- CCOc1ncccc1C(=O)/N=c1\sc(C(C)(C)C)c(C)n1CC1CC1 [compound 310] — 1.9-fold higher, 17.3 nM
- CSc1ncccc1C(=O)/N=c1\sc(C(C)(C)C)c(C)n1CC1CC1 [compound 312] — 1.6-fold higher, 14 nM

test system: not given; assay: not given; conditions: not given

Compared with Cc1cc(Cl)ccc1C(=O)/N=c1\sc(C(C)(C)C)c(C)n1CC1CC1 [compound 242], Cc1c(C(C)(C)C)s/c(=N\C(=O)c2ccc(F)c(Cl)c2F)n1CC1CC1 [compound 285] is lower in melting point: 108 to 109 °C for the first, 76 to 77 °C for the second.

First: Cc1cccc(Cl)c1C(=O)/N=c1\sc(C(C)(C)C)c(C)n1CC1CC1 [compound 244]
Second: Cc1cccnc1C(=O)/N=c1\sc(C(C)(C)C)c(C)n1CC1CC1 [compound 293]
The melting point of the first is higher: 159 to 160 °C for the first, 88 to 89 °C for the second.

First: Cc1cccc(Br)c1C(=O)/N=c1\oc(C(C)(C)C)c(C)n1CC1CC1 [compound 248]
Second: Cc1ccc(C(=O)/N=c2\sc(C(C)(C)C)c(C)n2CC2CC2)c(F)c1F [compound 287]
The melting point of the first is lower: 89 to 90 °C for the first, 122 to 124 °C for the second.

Compared with Cc1c(C(C)(C)C)s/c(=N\C(=O)c2cc(C(F)(F)F)ccc2F)n1CC1CC1 [compound 251], Cc1c(C(C)(C)C)s/c(=N\C(=O)c2cc(C(F)(F)F)ccc2Cl)n1CC1CC1 [compound 257] is lower in melting point: 113 to 115 °C for the first, 100 to 102 °C for the second.

First: Cc1c(C(C)(C)C)s/c(=N\C(=O)c2cc(F)ccc2C(F)(F)F)n1CC1CC1 [compound 254]
Second: Cc1c(C(C)(C)C)s/c(=N/C(=O)c2cnccc2C(F)(F)F)n1CC1CC1 [compound 298]
The melting point of the first is higher: 110 to 112 °C for the first, 74 to 76 °C for the second.

First: Cc1c(C(C)(C)C)s/c(=N\C(=O)c2cc(Br)ccc2OC(F)F)n1CC1CC1 [compound 266]
Second: Cc1c(C(C)(C)C)s/c(=N\C(=O)c2cc(C(F)(F)F)ccc2OC(C)C)n1CC1CC1 [compound 269]
The melting point of the first is higher: 169 to 170 °C for the first, 106 to 108 °C for the second.

Compared with CCOc1ccc(C(F)(F)F)cc1C(=O)/N=c1\sc(C(C)(C)C)c(C)n1CC1CC1 [compound 268], COCCOc1ccc(C(F)(F)F)cc1C(=O)/N=c1\sc(C(C)(C)C)c(C)n1CC1CC1 [compound 270] is lower in melting point: 140 to 142 °C for the first, 108 to 110 °C for the second.

First: Cc1c(C(C)(C)C)s/c(=N\C(=O)C2=C(NCCO)C=CC(C(F)(F)F)C2)n1CC1CC1 (centres unmarked) [compound 272]
Second: Cc1c(C(C)(C)C)s/c(=N\C(=O)c2cc(C(F)(F)F)ccc2N(C)C)n1CC1CC1 [compound 277]
The melting point of the first is higher: 131 to 133 °C for the first, 126 to 128 °C for the second.

Compared with CCN(C)c1ccc(C(F)(F)F)cc1C(=O)/N=c1\sc(C(C)(C)C)c(C)n1CC1CC1 [compound 274], Cc1c(C(C)(C)C)s/c(=N\C(=O)c2ccc(F)c(F)c2F)n1CC1CC1 [compound 282] is lower in melting point: 101 to 103 °C for the first, 82 to 84 °C for the second.

First: Cc1c(C(C)(C)C)s/c(=N\C(=O)c2cc(F)c(F)cc2F)n1CC1CC1 [compound 283]
Second: Cc1c(C(C)(C)C)s/c(=N\C(=O)c2cc(F)c(F)cc2Cl)n1CC1CC1 [compound 284]
The melting point of the first is lower: 78 to 79 °C for the first, 112 to 114 °C for the second.

First: Cc1c(C(C)(C)C)s/c(=N/C(=O)c2cccnc2F)n1CC1CC1 [compound 300]
Second: CSc1ncccc1C(=O)/N=c1\sc(C(C)(C)C)c(C)n1CC1CC1 [compound 312]
The melting point of the first is lower: 83 to 84 °C for the first, 138 to 139 °C for the second.

First: Cc1c(C(C)(C)C)s/c(=N\C(=O)c2nccnc2Cl)n1CC1CC1 [compound 305]
Second: Cc1c(C(C)(C)C)s/c(=N\C(=O)c2cc(Cl)ncc2Cl)n1CC1CC1 [compound 307]
The melting point of the first is higher: 115 to 116 °C for the first, 110 to 112 °C for the second.

With CCOc1ncccc1C(=O)/N=c1\sc(C(C)(C)C)c(C)n1CC1CC1 [compound 310] the melting point was 102 to 104 °C.
